Tested on: CD8+ T cells from people without HIV
Test: In vitro reprogramming of bulk CD8+ T cells, phenotype without further stimulation
Format: cell-based, human
Method: FIG. 1. Induction of stem-like CD8^+ T cells with high survival capacity and polyfunctionality by in vitro reprogramming. A. CD8^+ T cells from people without HIV were incubated with medium, vehicle control, or a GSK3 inhibitor, for 12 hs and the phenotype was evaluated by flow cytometry. A representative donor from a total of 4 is shown. B. Frequencies of CD8^+ T cell subpopulations after each treatment. C. Fold change of CD8^+ T cell subpopulations after treatment with vehicle control or a GSK3 inhibitor, relative to medium alone condition (n=4). D. Expression of TCF-1 in CD8^+ T cell subpopulations (n=4). E. The expression of the indicated markers in cells pre-treated with vehicle control or a GSK3 inhibitor was evaluated by flow cytometry. The fold change in the expression induced by 48 hs anti-CD3/CD28 stimulation, relative to unstimulated cells, is shown (n=5). F. Left: Flow cytometry analysis of dead cells (Aqua Live/Dead^+) among total and T-bet+CD8^+ T cells. Right: Fold change in dead CD8^+ T cells induced by anti-CD3/CD28 stimulation, relative to the unstimulated condition (n=5). G. Frequencies of granzyme B^+, TL-2^+, IFN-γ^+, and TNF-α^+CD8^+ T cells after anti-CD3/CD28 stimulation. H. Expression of 1 to 4 functions in CD8^+ T cells after anti-CD3/CD28 stimulation (n=5). I. After reprogramming with the GSK3 inhibitor, CD8^+ T cells were stimulated for 48 hs with anti-CD3/CD28, followed by wash and resting for 5 days. Then, cells were restimulated for another 48 hs with anti-CD3/CD28. Left: Flow cytometry analysis of proliferating (CFSE dilution) CD8^+ T cells. Right: Frequencies of CD8^+ T cells with 0, 1-3 or ≥4 cell divisions (n=9). J. Frequency of the total HCMV pp65-specific CD8^+ T cell response (IFN-γ^+ or CD107a^+ or TNF-α^+), after vehicle control or GSK3 inhibitor treatment, followed by HCMV pp65 peptides stimulation for 6 hs (n=6). K. Frequencies of CD8^+ T cell subpopulations among HCMV pp65-specific CD8^+ T cells (n=6). L. Expression of IFN-γ, CD107a, and TNF-α in HCMV pp65-specific CD8^+ T cells (n=6). M. Frequency of the total HCMV pp65-specific CD8^+ T cell response after HCMV pp65 peptides stimulation for 6 days (n=6). *P<0.05; **P≤0.01. NS: Not statistically significant. TSCM: Stem cell memory; TCM: Central memory; TTM: Transitional memory; TEM: Effector memory; TTE: Terminal effector.
FIG. 2. A. Flow cytometry gating strategy used to identify CD8^+ T cell subpopulations: Naïve, Stem cell memory (TSCM), Central memory (TCM), Transitional memory (TTM), Effector memory (TEM), and Terminal effector (TTE). B. Expression of CCR7, CD27 and TCF-1 in total CD8^+ T cells after treatment with vehicle control, or the GSK3 inhibitors BIO or TWS119, for 12 hs. The median fluorescence intensity of each marker is depicted. C. Fold change in TSCM, TCM and TEM cells induced by BIO or TWS119, relative to vehicle control (n=3 people without HIV). D. Fold change in T-bet^+ cells among TSCM and TCM induced by anti-CD3/CD28 stimulation, relative to vehicle control, in cells previously treated with vehicle control, BIO or TWS119 (n=3). E. Fold change in T-bet^+ cells among naïve/TSCM induced by anti-CD3/CD28 stimulation (0.2 and 1 μg/mL), relative to unstimulated cells, previous treatment with vehicle control or the GSK3 inhibitor (n=3). F. Fold change in T-bet^+ cells among each CD8^+ T cell subpopulation induced by anti-CD3/CD28+ICAM-1 stimulation, relative to unstimulated cells (n=5). G. Frequency of IL-2^+TNF-α^+ cells among each CD8^+ T cell subpopulation after anti-CD3/CD28+ICAM-1 stimulation (n=5). H. Correlation between the frequency of PD-1^+LAG-3^+TIM3^+TIGIT^+CD8^+ T cells and the proportion of CD8^+ T cells with ≥4 cell divisions after restimulation (n=6). I. After reprogramming with the GSK3 inhibitor, CD8^+ T cells were left unstimulated, stimulated once for 48 hs with anti-CD3/CD28, or stimulated twice with anti-CD3/CD28. The expression of T-bet in TCM and TTM cells is shown (n=5). *P<0.05. […]

[1] = BIO and TWS119 in parallel, 3 μM, 12 hs, FIG. 2C

O=C1Nc2cc(Br)ccc2/C1=C1/Nc2ccccc2/C1=N\O [BIO, 6-bromoindirubin-3′-oxime]
expression of TCF-1 (3 μM, 12 hs, FIG. 1D): enhanced expression | CD8+ T cells with stem cell memory (TSCM) and central memory (TCM) phenotype (3 μM, 12 hs, FIGS. 1A-C): enrichment | effector memory (TEM) and terminal effector (TTE) cells (3 μM, 12 hs, FIGS. 1A-C): decrease | surface expression of CCR7 and CD27 (3 μM, 12 hs, absence of further stimulation, FIG. 1A): upregulation | CCR7, CD27, and TCF-1 (BIO and TWS119 in parallel, 3 μM, 12 hs, FIG. 2B): induced | TEM cells [1]: decrease | TSCM and TCM cells [1]: increase | effect compared between the two GSK3 inhibitors (FIGS. 2B and C): greater effect than TWS119
